Assay results reported in US7803818B2, “Amorphous form of 1,2-dihydropyridine compound” (Eisai R&D Management Co., Ltd., priority 2005, dated 2010).

Experiments:
[1] = Solubility in JP2 fluid after shaking 5 minutes (shake flask method); type: physicochemical; conditions: for Concentration (solubility in JP2 fluid after shaking 5 minutes): JP2 fluid pH 6.8, about 5 mg in 5 mL, shaking 5 minutes at room temperature, filtration, HPLC
Protocol: Measurement of Solubility in JP2 Fluid after Shaking 5 minutes (Shake Flask Method)
Sample solutions were prepared by placing each sample (about 5 mg) in test tube, adding 5 mL of “2nd fluid” as described in General Tests (disintegration test) of Japanese Pharmacopeia (JP2 fluid: pH 6.8), and shaking 5 minutes at room temperature, followed by filtration. These sample solutions were analyzed using high performance liquid chromatography (HPLC), and calculated the concentration.
HPLC System: LC-10AT System (from Shimadzu Corporation)
Detector: ultraviolet absorptiometer (wavelength: 290 nm)
Column: YMC Pack Pro C18, 4.6 mm I.D.×150 mm (from YMC, Japan)
Column temperature: 35° C.
Auto sampler temperature: 25° C.
A: water/acetonitrile/ammonium acetate (900:100:1, v/v/w)
B: water/acetonitrile/ammonium acetate (100:900:1, v/v/w)
(Isocratic Condition: B Concentration=40%)

[2] = test system: AMPA receptor; conditions: see Patent Document 1 (WO/JP01/96308); cited from earlier work

SMILES | solubility in a solution such as JP2 fluid ([1]; JP2 fluid (2nd fluid of Disintegration Test, Japanese pharmacopoeia)) | Concentration (solubility in JP2 fluid after shaking 5 minutes) [1] | antagonistic action against AMPA receptor [2]
N#Cc1ccccc1-c1cc(-c2ccccn2)cn(-c2ccccc2)c1=O [Example 1] | excellent solubility | 12.5 µg/mL | 
N#Cc1ccccc1-c1cc(-c2ccccn2)cn(-c2ccccc2)c1=O [Reference Example 1, 3-(2-cyanophenyl)-5-(2-pyridyl)-1-phenyl-1,2-dihydropyridin-2-one, reference compound] |  | 4.8 µg/mL | 
N#Cc1ccccc1-c1cc(-c2ccccn2)cn(-c2ccccc2)c1=O [compound (1), 3-(2-cyanophenyl)-5-(2-pyridyl)-1-phenyl-1,2-dihydropyridin-2-one] |  |  | significant antagonistic action
